From paper PMC5294416, “Novel peptides for deciphering structural and signalling functions of E-cadherin in mouse embryonic stem cells” (Scientific Reports, 2017)
Primed or numbered codes have the meaning given here. Ends that are not written are not given here. FITC′ = fluorescein-5(6)-isothiocyanate; Nova linker = not defined here

What was measured:
[1] = test system: OCT4 protein in wtD3 mESCs; assay: Immunofluorescence microscopy analysis of OCT4 protein expression with pathway inhibitors; format: cell-based, mouse; conditions: for OCT4 protein expression, inhibitor with vehicle control: wtD3 mESCs, no peptide, after 5 days
Description: (§1) Unless otherwise stated, mESC lines were grown on gelatinised tissue culture grade 6-well plates at 37 °C/5% CO2, as previously described. mESCs cells were treated with 10 μM peptide in mESC culture medium which was replenished every 24 h. Inhibition of specific pathways in mESCs was achieved by incubation with 10 μM LY294002 (PI3K inhibitor), PD9805 (MEK inhibitor) and SB431542 (TGFβ1 R inhibitor).
(§2) Monolayer cultured mESCs were fixed in situ in 4% w/v PFA in PBS for 30 minutes at room temperature, washed twice with PBS and blocked with 1% goat serum in 0.1% w/v BSA, 0.1% Triton X-100 in PBS for 30 minutes. Cells were incubated in the appropriate primary antibody in goat blocking buffer for two hours at RT. Cells were washed three times in PBS and incubated in the appropriate Alexa fluor-488 or −546 conjugated secondary antibody at RT for 1 hour in the dark. Cells were washed three times with PBS, mounted in 4′6-diamidino-2-phenylindole (DAPI) (Vector Laboratories) and visualized using a Leica DM6000B fluorescence microscope (Leica Microsystems) and processed using Leica LAS X Core software (Leica Microsystems). Primary antibodies: anti-Nanog, 1:200 dilution (ab80892, Abcam Plc, Cambridge, UK); anti-Oct4, 1:200 dilution (ab19857, Abcam Plc, Cambridge, UK). For immunofluorescence microscopy analysis of fluorescent-tagged peptides, cells were incubated in 500 μM peptide in cell culture medium for 15 minutes, washed twice in ice cold PBS and mounted with Vectorshield containing DAPI. Cells were visualized using a Leica DM6000B fluorescence microscope (Leica Microsystems) and processed using Leica LAS X Core software (Leica Microsystems).
(§3) Images were imported into ImageJ and fluorescence intensity measured using the Analyse > Measure function on areas selected using the rectangular or oval selection icons.

wtD3 mESCs [2] = assay: Loss of cell-cell contact, phase contrast microscopy; format: cell-based, mouse; conditions: for Effect on cell-cell contact (in words): wtD3 mESCs, 10 μM peptide, 24 h, phase contrast
Description: as §1

wtD3 and Ecad−/− mESCs = assay: Binding of fluorescent-tagged peptides to wtD3 versus Ecad−/− mESCs; format: cell-based, mouse; conditions: fluorescein-tagged peptide, 500 μM, 15 minutes, 37 °C, immunofluorescence microscopy / flow cytometry
Description: D3 and Ecad^−/− mESCs were treated with Epep-F or EpepW2R-F at concentrations of 0 (control), 5, 10, 25, 50 and 500 μM in culture medium as a monolayer on ice. Ice cold conditions were utilised to minimise endocytosis of fluorescent tagged peptide. Cells were harvested using cell dissociation buffer, centrifuged and washed with PBS and fixed in 500 μl 1% w/v paraformaldehyde (PFA) in PBS for analysis using a FACSCalibur (BD Biosciences, California, USA). Viable cells were gated using forward scatter and side scatter and all data shown represents quantification of the fluorescence emitted by this population.
Monolayer cultured mESCs were fixed in situ in 4% w/v PFA in PBS for 30 minutes at room temperature, washed twice with PBS and blocked with 1% goat serum in 0.1% w/v BSA, 0.1% Triton X-100 in PBS for 30 minutes. Cells were incubated in the appropriate primary antibody in goat blocking buffer for two hours at RT. […] Cells were washed three times with PBS, mounted in 4′6-diamidino-2-phenylindole (DAPI) (Vector Laboratories) and visualized using a Leica DM6000B fluorescence microscope (Leica Microsystems) and processed using Leica LAS X Core software (Leica Microsystems). […] Cells were visualized using a Leica DM6000B fluorescence microscope (Leica Microsystems) and processed using Leica LAS X Core software (Leica Microsystems). […]

[3] = molecular target: T1, recombinant mouse E-Cadherin Fc Chimera (Mus musculus, UniProt P09803); assay: Biacore SPR equilibrium binding analysis (affinity capture); conditions: equilibrium analysis using affinity capture on HTE chip, peptide stock in water, average of three runs, running buffer HBS/0.02% Tween/2 mM CaCl2/1 mM MgCl2
T1 construct: purchased R&D Systems
Description: Biacore SPR analysis was used to measure the interaction between peptides and recombinant mouse E-Cadherin Fc Chimera (R&D Systems). Analytes were passed over an HTE chip with surface bound His-tagged Recombinant Mouse E-Cadherin Fc Chimera (R&D Systems). The kinetics of interaction, i.e. the rates of complex formation (ka) and dissociation (kd), were determined and Integrin α4β7 protein was used as a control. Analysis was performed by the Biomolecular Analysis Core Facility (The University of Manchester, UK) on a Proteon XPR-36 protein interaction array system (Bio-Rad) using a HTE chip for high capacity His-tagged protein capture (Bio-Rad). Equilibrium analysis runs were performed three times and an average KD was calculated. Running buffer: HBS/0.02%, Tween/2 mM, CaCl2/1 mM MgCl2.

[4] = test system: STAT3 phosphorylation in wtD3 mESCs; assay: Western blot analysis of phosphorylated STAT3; format: cell-based, mouse; conditions: wtD3 mESCs vs control treated cells, western blot
Description: as §1
Cells were harvested using cell dissociation buffer, centrifuged and washed with PBS prior to lysis using Radioimmunoprecipitation (RIPA) buffer (Sigma) containing protease inhibitor cocktail tablets (1 tablet per 10 ml RIPA buffer) (Roche Applied Science) at a concentration of 2 × 10^7 cell/ml. Lysates were separated by SDS-PAGE and electrotransferred onto nitrocellulose membrane as previously described. The membrane was probed using the appropriate primary antibody with subsequent incubation with HRP-conjugated secondary antibody. The membrane was exposed to an autoradiographic film (Hyperfilm ECL, GE Healthcare, Amersham, UK) for the appropriate time period in an X-ray cassette before the film was manually developed in a dark room using Kodak GBX developer and fixer solutions (Sigma, Dorset, UK). Primary antibodies: anti-α-tubulin, 1:2000 dilution (T9026, Sigma, Dorset, UK); anti-AKT, 1:200 dilution (#9272, Cell Signalling Technology, MA, USA); anti-pAKT (Ser473), 1:200 (#4060S, Cell Signalling Technology, MA, USA); anti-STAT3, 1:200 dilution (SC-482, Santa Cruz Biotechnology Inc, TX, USA); anti-pSTAT3, 1:200 dilution (#9138S, Cell Signalling Technology, MA, USA).

[5] = test system: Nanog, Klf4, Tbx3, Esrrb, Nr0b1, Nr5a2 and Tet1 transcripts in wtD3 mESCs; assay: qPCR analysis of pluripotency transcript expression; format: cell-based, mouse
Description: as §1
Primers for qPCR were designed using the Roche Applied science Universal Probe Library software and BLAST screened for sequence specificity. Only primers producing a single dissociation peak were used. RNA was extracted from mESCs and cDNA at a concentration of 2 ng/μl was used for analysis in a MicroAmp Optical 96-well Reaction Plate (Applied Biosystems) using SYBR green Jumpstart Taq ReadyMix (Applied Biosystems). Primer sequences: 18srRNA Forward (F) […], Reverse (R) […]; ESRRB F-[…], R-[…]; KLF4 F-[…], R-ATGTCCGCCAGGTTGAAG; NANOG F-[…], R-[…]; NR0B1 F-[…], R-[…]; NR5A2 F-[…], R-[…]; TBX3 F-[…], R-[…]; TET1 F-[…], R-[…].

[6] = test system: NANOG protein in wtD3 mESCs; assay: Immunofluorescence microscopy analysis of NANOG protein expression; format: cell-based, mouse; conditions: 96 h / 4 days where stated
Description: as §2, with “For immunofluorescence microscopy analysis of fluorescent-tagged peptides, cells were incubated in 500 μM peptide in cell culture medium for 15 minutes, washed twice in ice cold PBS and mounted with Vectorshield containing DAPI.” left out
as §3

pERK1/2 in wtD3 mESCs = assay: Western blot analysis of phosphorylated ERK1/2; format: cell-based, mouse
mESCs = assay: Cell viability in monolayer culture; format: cell-based, mouse; conditions: data not shown
wtD3 mESCs [7] = format: cell-based; conditions: 24 h, 10 μM
From the text: Cell viability was quantified using an Alexa Fluor 488 Annexin V/Dead Cell Apoptosis Kit (Invitrogen) according to the manufacturer’s instructions.

[8] = Water solubility of peptides; format: physicochemical
Description: All peptides were synthesised by Severn Biotech Ltd (UK) as a lyophilized powder. Peptides were solubilised to a stock solution of 100 mM in ddH20, unless otherwise stated. Peptides were tagged with a Fluorescin-5(6) molecule at the NH2-terminus, separated by a Nova linker molecule, and assessed for activity prior to use (inhibition of cell-cell contact).

[9] = molecular target: His-tagged Recombinant Mouse E-Cadherin Fc Chimera (mouse) (UniProt P09803); assay: SPR; as a1, E-cadherin-Fc captured on the HTE chip; peptide dissolved in 10%v/v DMSO/H2O; EpepP7R at 0.3, 1, 3, 5, 10 μM; equilibrium analysis
[10] = molecular target: T2, His-tagged Recombinant Mouse E-Cadherin Fc Chimera, P09803; assay: Biacore SPR equilibrium affinity capture analysis; conditions: chain shown with the change
T2 chain: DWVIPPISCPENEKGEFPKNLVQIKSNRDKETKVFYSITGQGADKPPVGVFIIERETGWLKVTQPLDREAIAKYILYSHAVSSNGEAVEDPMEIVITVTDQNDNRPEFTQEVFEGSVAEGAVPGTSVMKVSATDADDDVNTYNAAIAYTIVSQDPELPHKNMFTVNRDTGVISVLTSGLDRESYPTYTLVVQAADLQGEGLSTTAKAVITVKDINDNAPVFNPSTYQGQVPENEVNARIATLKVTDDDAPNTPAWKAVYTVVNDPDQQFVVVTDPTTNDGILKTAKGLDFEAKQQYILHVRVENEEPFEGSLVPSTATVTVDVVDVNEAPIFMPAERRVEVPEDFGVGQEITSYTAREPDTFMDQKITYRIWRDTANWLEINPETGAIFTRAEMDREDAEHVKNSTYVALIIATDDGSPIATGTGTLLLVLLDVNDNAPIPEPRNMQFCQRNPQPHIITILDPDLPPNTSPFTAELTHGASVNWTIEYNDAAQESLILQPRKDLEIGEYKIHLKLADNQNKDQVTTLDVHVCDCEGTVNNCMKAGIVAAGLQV

[11] = transcript, mESCs, Fig. 6a summary

NC(=O)c1ccc(-c2nc(-c3ccc4c(c3)OCO4)c(-c3ccccn3)[nH]2)cc1 [SB431542]
OCT4 protein expression, inhibitor with vehicle control [1]: maintained expression of OCT4 protein

Cc1c[nH]c(/C=C2\C(=O)Nc3ccccc32)c1CCC(=O)O [SU5402]
OCT4 protein expression, inhibitor with vehicle control [1]: maintained expression of OCT4 protein

Epep-F: Epep with fluorescein-5(6)-isothiocyanate label conjugated to the NH2-terminus via a Nova linker ({FITC′-Nova linker}-SWELYYPLRANL; reading uncertain)
Effect on cell-cell contact (in words) (wtD3 mESCs [2]): loss of cell-cell contact | Binding of fluorescent-tagged peptide to wtD3 versus Ecad−/− mESCs (wtD3 and Ecad−/− mESCs): preferential binding to wtD3 ESCs

SAELYYPLRANL [EpepW2A]
Kd [3]: 55 µM

SRELYYPLRANL [EpepW2R, Epep with the Trp-2 residue replaced with arginine, …]
KD [3]: did not produce a strong enough response to perform equilibrium analysis | Effect on cell-cell contact (in words) (wtD3 mESCs [2]): did not induce loss of cell-cell contact | Effect on STAT3 phosphorylation (in words) [4]: unaffected | Loss of Nanog [5, 11]: YES | Loss of Nr0b1 [5, 11]: YES | Loss of Nr5a2 [5, 11]: YES | Loss of TBX3 [5, 11]: YES | Transcripts with decreased expression compared to control (qPCR) ([5]; wtD3 mESCs, 10 μM peptide, 24 h): Nanog, Tbx3, Nr0b1 and Nr5a2 | Transcripts unchanged / not inhibited (qPCR) ([5]; wtD3 mESCs, 24 h treatment): Klf4 and Esrrb | NANOG protein expression [6]: decreased levels of protein | OCT4 protein expression in the presence of SU5402 ([1]; peptide-treated wtD3 mESCs plus FGFR1 inhibitor SU5402, after 5 days): increased cell death and statistically significant loss of OCT protein expression | pERK1/2 compared to untreated mESCs (pERK1/2 in wtD3 mESCs): decreased pERK1/2 | Binding of fluorescent-tagged peptide to wtD3 versus Ecad−/− mESCs (wtD3 and Ecad−/− mESCs): binds specifically to E-cadherin | cell viability in monolayer culture (mESCs): no significant difference in cell viability

SWALYYPLRANL [EpepE3A]
Kd [3]: 6.9 µM

SWEAYYPLRANL [EpepL4A]
Kd [3]: 3.61 µM

SWELAYPLRANL [EpepY5A]
Kd [3]: 8.82 µM

SWELYAPLRANL [EpepY6A]
Kd [3]: 21.4 µM

SWELYYP [EpepΔCtm]
Kd [3]: 2.7 µM | viable population (lower left box) (wtD3 mESCs [7]): 59.1%

SWELYYRLRANL-NH2 (C-terminus assumed) [EpepP7R]
Loss of cell-cell contact (10μM)? (wtD3 mESCs [2]; mESCs, 10 μM, Fig. 6a summary): YES | Effect on cell-cell contact (in words) (wtD3 mESCs [2]): Abrogation of E-cadherin mediated cell-cell contact was observed with EpepP7R (Fig. 5c and Figure S1b), although cell dissociation was reduced compared to Epep | solvent required for complete solubilization ([8]; 100 mM stock): 10%v/v DMSO/H2O | solubility in water ([8]; lyophilized powder, stock in water): < 100 mM

SWELYYRLRANL [EpepP7R]
Kd [9]: 3.87 µM

AWELYYPLRANL [Epep (E-cadherin binding peptide H-…-NH2) S1A]
Kd [10]: 1.19 µM
